≈ marks a conversion by molar mass, not a printed value.
How the values were obtained:
Daphnia magna [1] = settings: experimental data ref Tisler and Zagorc-Koncan, 2003; cited from earlier work
Daphnia magna [2] = settings: experimental data ref Tisler and Zagorc-Koncan, 2003; cited from earlier work; remark: listed apart in the source
[3] = cited from earlier work
Scenedesmus quadricauda = settings: experimental data ref Tisler and Zagorc-Koncan, 2003; cited from earlier work
Orcorhynchus mykiss = settings: experimental data ref Tisler and Zagorc-Koncan, 2003; cited from earlier work
Oral rat/rabit = settings: ref Acros Organics safety data sheet; cited from earlier work
M. hydrocarbonoclasticus [4] = experiment: Biofilm inhibition assay (crystal violet); type: cell-based, Marinobacter hydrocarbonoclasticus; settings: Marinobacter nauticus; for inhibition at 31.25 µg/mL: read-out: % Biofilm Inhibition ± SEM M. hydrocarbonoclasticus
Method: (§1) In a 96-well plate, biofilm grown cultures of M. hydrocarbonoclasticus and C. marina were incubated with napyradiomycins (1–12) at a concentration of 31.25 µg/mL. After discarding the media, biofilm inhibition was determined from OD600 measurements of crystal violet stained cells resuspended from the plate bottom with acetic acid.
(§2) Five marine bacterial species were used as models to assess antimicrofouling activity. The biofilm-forming marine bacteria Marinobacter hydrocarbonoclasticus DSM 8798 (ATCC 49840), Cobetia marina DSM 4741, Phaeobacter inhibens DSM 17,395, and Pseusooceanicola batsensis DSM 15,984 were obtained from DSMZ (Leibniz Institute DSMZ—German collection of Microorganisms and Cell Cultures) and Micrococcus luteus. Cultures were routinely grown in liquid marine broth (Carl Roth GmbH, Karlsruhe, Germany) with agitation (180 rpm) or on agar-supplemented marine broth, at 28 °C (M. hydrocarbonoclasticus and C. marina) or 30 °C (P. inhibens and P. batsensis). M. luteus was maintained in Brain Heart Infusion broth (BHI, Becton Dickinson, GmbH, Heidelberg, Germany) with agitation (180 rpm) or on agar-supplemented BHI, at 37 °C.
(§3) The antibiofilm activity of napyradiomycins (1–12) against the five marine bacterial species was assessed in 96-well polystyrene flat bottom microplates (Nunclon Delta Surface, Thermo Scientific, Roskilde, Denmark) as previously reported. For initial screening, bacterial overnight cultures were diluted to an optical density (OD600nm) value of 0.2 and incubated statically at 28 °C (M. hydrocarbonoclasticus, C. marina), 30 °C (P. inhibens, P. batsensis) or 37 °C (M. luteus) in the 96-well microplate in the presence or absence of 31.25 µg/mL of napyradiomycins, solubilized in DMSO. After 24 h (M. hydrocarbonoclasticus, C. marina) or 48 h (P. batsensis, P. inhibens, M. luteus) incubation, the OD600nm was determined. The planktonic cells and media were discarded, and the wells were washed twice with deionized water. The biofilm was fixed for 1 h at 60 °C and stained with crystal violet 0.06% for 10 min. The dye was discarded, and the wells were again washed twice with deionized water. The stained biofilm was solubilized with 30% acetic acid and the OD600nm was determined. […] The percentage of biofilm inhibition was calculated as the amount of biofilm relative to that of the bacterial species without added compounds (with the same amount of DMSO added). CuSO4 (5 μM), a potent antifouling agent used in antifouling paints, was used as reference.
(§4) All assays were performed in triplicate, and results are representative of the average and standard error of the mean (SEM). Statistical analysis was performed in GraphPad Prism 8.0.2, using one-way ANOVA followed by a Dunnett’s multiple comparisons test against the control (species grown with the same amount of DMSO added).

[5] = Mussel plantigrade larvae settlement, 15 h acute exposure assay; type: in vivo; settings: Mytilus galloprovincialis (mussel, plantigrade larvae), in vivo, no mortality at highest tested concentration 12 µg/mL
Method: (§5) Mussel (M. galloprovincialis) adhesive larvae (plantigrades) were used to assess in vivo the antifouling activity of napyradiomycins (1–12) towards macrofouling. Juvenile mussel aggregates were collected at the intertidal rocky shore during low spring tides, at Memória beach, Matosinhos, Portugal (41°13′59″ N; 8°43′28″ W). At the laboratory, immediately before the bioassays, mussel plantigrade larvae were screened and isolated from the juvenile aggregates using a binocular microscope (Olympus SZX2-ILLT, Hamburg, Germany) and washed with filtered seawater to remove organic debris. Only competent plantigrade larvae (those showing foot exploratory behavior) were selected and used in the exposure bioassays following previously validated procedures. Plantigrades were exposed in 24-well polystyrene plates for 15 h in the darkness at 18 °C. DMSO was used as solvent for crude extracts, fractions and pure compounds stock and working solutions. Working solutions were prepared by successive dilutions of stock solutions in DMSO and then diluted in filtered seawater to obtain the test solutions. DMSO concentration in test solutions was always 0.1%. Four well replicates were used per condition with five larvae per well. Two negative controls, one with ultra-pure water and the other with DMSO 0.1% were included in all bioassays, as well as a positive control with 5 μM CuSO4 (a potent antifouling agent). Anti-settlement bioactivity was determined by the presence/absence of fixed byssal threads produced by each individual larvae for all the conditions tested. […] Chi-square Pearsons goodness-of-fit test was applied to data in order to determine EC50. Significance was considered at p < 0.01 for all analyses, and 95% lower and upper confidence limits [95% LCL; UCL] were presented. Therapeutic ratio (LC50/EC50) was used to evaluate the effectiveness vs. toxicity of compounds [19, 21].

[6] = tested on: M. galloprovincialis plantigrade larvae; experiment: as above; type: in vivo; settings: 95% LCL, UCL in brackets; for EC50: Mytilus galloprovincialis, 15 h, read-out: EC50 [Conf. limits] larval settlement
Method: as §5

C. marina [7] = experiment: Bacterial growth inhibition assay (OD600nm); type: cell-based, Cobetia marina; settings: 31.25 µg/mL
Source text: as §2
(§6) The antibacterial activity of the napyradiomycins (1–12) was assessed in 96-well polystyrene flat bottom microplates (Nunclon Delta Surface, Thermo Scientific, Roskilde, Denmark) following previously reported procedures. […] After 24 h (M. hydrocarbonoclasticus, C. marina) or 48 h (P. batsensis, P. inhibens, M. luteus) incubation, the OD600nm was determined (Molecular Devices, Spectra Max 190). […] The percentage of growth inhibition was calculated as the amount of growth relative to that of the bacterial species without added compounds (with the same amount of DMSO added). CuSO4 (5 μM), a potent antifouling agent used in antifouling paints, was used as reference.
as §4, with “8.0.2 (San Diego, CA, USA),” for “8.0.2,”

C. marina [8] = experiment: Biofilm inhibition assay (crystal violet); type: cell-based, Cobetia marina; settings: 31.25 µg/mL
Method: as §1, §2, §3, §4

M. hydrocarbonoclasticus [9] = experiment: Bacterial growth inhibition assay (OD600nm); type: cell-based, Marinobacter hydrocarbonoclasticus; settings: 31.25 µg/mL
Method: As a first screening approach, liquid cultures of M. hydrocarbonoclasticus, and C. marina in a 96-well format were analyzed for bacterial growth inhibition by percent decrease in OD600 after incubation with napyradiomycins (1–12) at 31.25 µg/mL.
as §2
The antibacterial activity of the napyradiomycins (1–12) was assessed in 96-well polystyrene flat bottom microplates (Nunclon Delta Surface, Thermo Scientific, Roskilde, Denmark) following previously reported procedures. For initial screening, bacterial overnight cultures were diluted to an optical density (OD600nm) of 0.2 and incubated statically at 28 °C (M. hydrocarbonoclasticus, C. marina), 30 °C (P. inhibens, P. batsensis) or 37 °C (M. luteus) in a 96-well microplate in the presence or absence of 31.25 µg/mL of the napyradiomycins, solubilized in DMSO. After 24 h (M. hydrocarbonoclasticus, C. marina) or 48 h (P. batsensis, P. inhibens, M. luteus) incubation, the OD600nm was determined (Molecular Devices, Spectra Max 190). […] The percentage of growth inhibition was calculated as the amount of growth relative to that of the bacterial species without added compounds (with the same amount of DMSO added). CuSO4 (5 μM), a potent antifouling agent used in antifouling paints, was used as reference.
as §4, with “8.0.2 (San Diego, CA, USA),” for “8.0.2,”

P. inhibens = experiment: Biofilm inhibition assay (crystal violet); type: cell-based, Phaeobacter inhibens; settings: 31.25 µg/mL
Method: as §1, §2, §3
All assays were performed in triplicate, and results are representative of the average and standard error of the mean (SEM). […]

M. luteus [10] = experiment: Bacterial growth inhibition assay (OD600nm); type: cell-based, Micrococcus luteus
Source text: as §2, §6
as §4, with “8.0.2 (San Diego, CA, USA),” for “8.0.2,”

P. batsensis = experiment: Biofilm inhibition assay (crystal violet); type: cell-based, Pseudooceanicola batsensis; settings: Pseudooceanicola batsensis; 31.25 µg/mL; read-out: % Biofilm Inhibition ± SEM P. batsensis
Method: as §1, §2, §3, §4

M. luteus [11] = experiment: Biofilm inhibition assay (crystal violet); type: cell-based, Micrococcus luteus
Method: as §1, §2, §3, §4

For [Cu] [Copper], the “Aquatic toxicity Daphnia magna EC50 48 hour” value (Daphnia magna [1]) is given as 0.030 µg/mL, the “Chronic toxicity Daphnia magna 21 day NOEC” value (Daphnia magna [2]) is given as 0.015 mg/L and the ATE category [3] is given as 3 (category 3, 50 < ATE ≤ 300 mg/Kg). For the same compound, the “Aquatic toxicity Alga Scenedesmus quadricauda 72 hour IC50” value (Scenedesmus quadricauda) was 0.18 µg/mL, the “Aquatic toxicity Fish Orcorhynchus mykiss 96 hour LC50” value (Orcorhynchus mykiss) was 0.48 µg/mL and the “Acute toxicity Oral rat/rabit LD50” value (Oral rat/rabit) was 140 mg/kg.

In the case of Cc1c(O)cc2c(c1O)C(=O)C1(Cl)CC(Cl)C(C)(C)OC1(CC1C(C)(O)CCC(Cl)C1(C)C)C2=O (centres unmarked) [Napyradiomycin 10, napyradiomycin A80915C], the inhibition at 31.25 µg/mL (M. hydrocarbonoclasticus [4]) is reported as 25.1 ± 10.2%, the LC50 at 15 h [5] is reported as over 12 µg/mL and the “EC50 [Conf. limits] larval settlement” value [6] is reported as 0.102 [0.072; 0.140] µg/mL. The EC50 [6] was 0.1 µg/mL (≈ 0.183 µM), the “% growth inhibition C. marina” value (C. marina [7]) was “did not inhibit growth” and the “% Biofilm Inhibition ± SEM C. marina” value (C. marina [8]) was “N.I”. The “% growth inhibition M. hydrocarbonoclasticus” value (M. hydrocarbonoclasticus [9]) was “did not inhibit growth”.

In the case of C=C(C)C(O)CC/C(C)=C/C[C@@]12OC(C)(C)[C@H](Cl)C[C@]1(Cl)C(=O)c1c(O)cc(O)cc1C2=O (some centres unmarked) [Napyradiomycin 4, napyradiomycin A2], the inhibition at 0.98 µg/mL (M. hydrocarbonoclasticus [4]; 0.98 µg/mL, read-out: % inhibition of biofilm formation M. hydro.) is reported as 56.1 ± 5.6%, the inhibition at 1.95 µg/mL (M. hydrocarbonoclasticus [4]; 1.95 µg/mL, read-out: % inhibition of biofilm formation M. hydro.) is reported as 78.1 ± 3% and the inhibition at 3.91 µg/mL (M. hydrocarbonoclasticus [4]; 3.91 µg/mL, read-out: % inhibition of biofilm formation M. hydro.) is reported as 84.5 ± 2%. The inhibition at 7.81 µg/mL (M. hydrocarbonoclasticus [4]; 7.81 µg/mL, read-out: % inhibition of biofilm formation M. hydro.) was 67 ± 5.5%, the inhibition at 15.6 µg/mL (M. hydrocarbonoclasticus [4]; 15.6 µg/mL, read-out: % inhibition of biofilm formation M. hydro.) was 82.3 ± 1.5% and the inhibition at 31.25 µg/mL (M. hydrocarbonoclasticus [4]) was 56.9 ± 5.7%. For the same compound, the LC50 at 15 h [5] was over 12 µg/mL, the EC50 [6] was 6.34 µg/mL (≈ 12.7 µM) and the “% Biofilm Inhibition ± SEM P. inhibens” value (P. inhibens) was “N.I”. For the same compound, the inhibition at 0.98 µg/mL (M. luteus [10]; Micrococcus luteus, 0.98 µg/mL) was 38.7 ± 1.9%, the inhibition at 1.95 µg/mL (M. luteus [10]; Micrococcus luteus, 1.95 µg/mL) was 51.7 ± 4.5% and the inhibition at 3.91 µg/mL (M. luteus [10]; Micrococcus luteus, 3.91 µg/mL) was 61.2 ± 3.7%. For the same compound, the inhibition at 7.81 µg/mL (M. luteus [10]; Micrococcus luteus, 7.81 µg/mL) was 53.3 ± 5.7%, the inhibition at 15.6 µg/mL (M. luteus [10]; Micrococcus luteus, 15.60 µg/mL) was 60.1 ± 8.5% and the inhibition at 31.25 µg/mL (M. luteus [10]; Micrococcus luteus, 31.25 µg/mL) was 72.5 ± 7.7%. The “% growth inhibition M. luteus” value (M. luteus [10]; all tested concentrations) was “approximately 50%”, the inhibition at 31.25 µg/mL (P. batsensis) was 13.4 ± 0.8% and the “% inhibition of biofilm formation M. luteus” value (M. luteus [11]; 0.98 µg/mL) was 93.8 ± 4.1%. The inhibition at 0.98 µg/mL (M. luteus [11]; Micrococcus luteus, 0.98 µg/mL, read-out: % inhibition of biofilm formation M. luteus) was over 90%, the inhibition at 1.95 µg/mL (M. luteus [11]; Micrococcus luteus, 1.95 µg/mL, read-out: % inhibition of biofilm formation M. luteus) was 91.7 ± 0.9% and the inhibition at 3.91 µg/mL (M. luteus [11]; Micrococcus luteus, 3.91 µg/mL, read-out: % inhibition of biofilm formation M. luteus) was 100 ± 0.4%. The inhibition at 7.81 µg/mL (M. luteus [11]; Micrococcus luteus, 7.81 µg/mL, read-out: % inhibition of biofilm formation M. luteus) was 86.7 ± 3%, the inhibition at 15.6 µg/mL (M. luteus [11]; Micrococcus luteus, 15.6 µg/mL, read-out: % inhibition of biofilm formation M. luteus) was 88.8 ± 4.2% and the inhibition at 31.25 µg/mL (M. luteus [11]; Micrococcus luteus, 31.25 µg/mL, read-out: % Biofilm Inhibition ± SEM M. luteus) was 97 ± 1.2%. The “% Biofilm Inhibition ± SEM C. marina” value (C. marina [8]) was “N.I”.

Reference: paper PMC7024211, “Antifouling Napyradiomycins from Marine-Derived Actinomycetes Streptomyces aculeolatus” (Marine Drugs, 2020)
